Measurements published in patent US20260200884A1, “COMPOUND FOR TREATING GOUT OR HYPERURICEMIA” (Arthrosi Therapeutics, Inc., priority 2019, published 2026).

Legend:
[1] = cited from earlier work
[2] = Solubility of the test article in HBSS assay buffer; type: physicochemical; conditions: all tested concentrations 0.01-10 μM; highest tested concentration 10 μM
Description: Before the experiment, the medium was removed and the cells were washed twice with 100 μL of HBSS without Cl^−. Uptake experiments were carried out at 37±1° C. in 50 μL of HBSS without Cl^−, pH 7.4 containing the probe substrate (20 μM uric acid) and the test article (TA) or solvent.
Results: Compound 1 was soluble in HBSS buffer at all tested concentrations; the highest tested concentration being 10 μM.

| solubility in HBSS buffer [2] | Structure (SMILES) | serum uric acid (sUA) level reached ([1]; chronic therapy, patients) [mg/dL] | hepatotoxicity ([1]; in certain patients) |
| --- | --- | --- | --- |
|  | CCc1oc2ccccc2c1C(=O)c1cc(Br)c(O)c(Br)c1 [Benzbromarone] | < 6 | associated with hepatotoxicity |
| soluble | [2H]c1c(O)c([2H])c2oc(C(C)O)c(C(=O)c3cc(Br)c(O)c(Br)c3)c2c1[2H] (stereo not drawn) [Compound 1, (3,5-dibromo-4-hydroxyphenyl)(6-hydroxy-2-(1-hydroxyethyl)benzofuran-3-yl-4,5,7-d3)methanone] |  |  |
